These results are taken from PubChem BioAssay (NCI).

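Each compound was tested at five concentrations against cells in 96-well plates for 48 hours. At the TGI there is no net growth.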

Among the test systems are CAKI-1 renal; DLD-1 colon; DMS 114 small cell lung; LXFL 529 NSCLC; M19-MEL melanoma; RPMI-8226 leukemia; RXF 393 renal; SF-268 CNS; SF-539 CNS; SK-MEL-28 melanoma; UACC-257 melanoma; NCI-H23 lung.
Common to all, as to assay: NCI-60 cell line screen, 48 h

Take `O=C1C2C3CC4C5C3C1C5C1(SCCS1)C42` (stereo unspecified): the TGI in the assay with CAKI-1 renal, in the assay on DLD-1 colon, in the assay with DMS 114 small cell lung, with LXFL 529 NSCLC, in the assay on M19-MEL melanoma and with RPMI-8226 leukemia was above 100 µM each time. In addition, the TGI in the assay on RXF 393 renal, in the assay on SF-268 CNS, with SF-539 CNS, with SK-MEL-28 melanoma and in the assay with UACC-257 melanoma was above 100 µM in each case.

For `CC(=O)OC(C)(C)C1CC[C@]2(C)/C=C/C(C)C[C@@H](O)/C=C(\C)CC(O)C12` (stereo partly specified), the TGI with CAKI-1 renal, in the assay with DLD-1 colon, in the assay on DMS 114 small cell lung, in the assay with LXFL 529 NSCLC, in the assay on M19-MEL melanoma and in the assay with NCI-H23 lung was above 100 µM each time. Besides, the TGI in the assay with RPMI-8226 leukemia, with RXF 393 renal, in the assay on SF-268 CNS, with SF-539 CNS, in the assay on SK-MEL-28 melanoma and in the assay on UACC-257 melanoma was above 100 µM throughout.

With `O=S1OC(c2ccccc2)(c2ccccc2)C(c2ccccc2)(c2ccccc2)O1`, the TGI in the assay on DLD-1 colon is above 100 µM; with DMS 114 small cell lung it was above 100 µM; in the assay with LXFL 529 NSCLC it was above 100 µM; with M19-MEL melanoma it was above 100 µM; in the assay on NCI-H23 lung, above 100 µM; in the assay with RPMI-8226 leukemia, above 49.4 µM. Moreover, the TGI with RXF 393 renal, with SF-268 CNS, in the assay on SF-539 CNS, in the assay with SK-MEL-28 melanoma and in the assay on UACC-257 melanoma was above 100 µM in each case.

For `CS(=O)(=O)OCCN(CCOS(C)(=O)=O)c1ccc(C=Nc2ccc(-c3csc(COc4ccccc4)n3)cc2)cc1`, the TGI worked out at 4.18 µM in the assay on CAKI-1 renal; 29.3 µM in the assay on DLD-1 colon; 23.4 µM in the assay with DMS 114 small cell lung; 25.3 µM in the assay with LXFL 529 NSCLC; 36 µM in the assay with M19-MEL melanoma; 14 µM with NCI-H23 lung. Besides, the TGI in the assay on RPMI-8226 leukemia stood at 67.5 µM; in the assay with RXF 393 renal it was 1.85 µM; in the assay with SF-268 CNS, 14.6 µM; in the assay with SF-539 CNS, 14.7 µM; in the assay on SK-MEL-28 melanoma it was 25.5 µM; in the assay with UACC-257 melanoma it was 28.3 µM.

Consider `COc1nc(NC2OC(COC(C)=O)C(OC(C)=O)C(OC(C)=O)C2OC(C)=O)c(N=CC=Nc2c(NC3OC(COC(C)=O)C(OC(C)=O)C(OC(C)=O)C3OC(C)=O)nc(OC)[nH]c2=O)c(=O)[nH]1` (stereo unspecified), for which the TGI in the assay with CAKI-1 renal, in the assay on DLD-1 colon, with DMS 114 small cell lung, with LXFL 529 NSCLC, with M19-MEL melanoma and in the assay on NCI-H23 lung was above 100 µM in each case. Also, the TGI in the assay with RPMI-8226 leukemia, in the assay with SF-268 CNS, in the assay on SF-539 CNS, in the assay on SK-MEL-28 melanoma and in the assay on UACC-257 melanoma was above 100 µM throughout.

As to `CC(=O)OCC1C(=O)OCC1C(=O)N1Cc2cc3ccccc3nc2C1` (stereo unspecified), the TGI in the assay on CAKI-1 renal came to 3.16 µM; in the assay with DLD-1 colon it was 3.37 µM; in the assay on DMS 114 small cell lung, 29.8 µM; in the assay on LXFL 529 NSCLC, 5.22 µM; with M19-MEL melanoma, 21.2 µM; in the assay with NCI-H23 lung, 14.5 µM. Besides, the TGI in the assay on RPMI-8226 leukemia is 4.6 µM; in the assay on RXF 393 renal, 2.57 µM; in the assay with SF-268 CNS, 22.6 µM; with SF-539 CNS, 17.8 µM; in the assay on SK-MEL-28 melanoma, 7.07 µM; in the assay on UACC-257 melanoma, 8.64 µM.

Regarding `O=C(O)/C=C/c1ccc(O)c(O)c1`, the TGI in the assay with CAKI-1 renal, with DLD-1 colon, with DMS 114 small cell lung, in the assay with LXFL 529 NSCLC, with M19-MEL melanoma and with NCI-H23 lung was above 100 µM in each case. The TGI with RPMI-8226 leukemia, in the assay on RXF 393 renal, in the assay on SF-268 CNS, in the assay on SF-539 CNS, in the assay on SK-MEL-28 melanoma and in the assay on UACC-257 melanoma was above 100 µM in each case.

As to `CC(C)(CN1CCCCC1)C(=O)/C=C/c1ccccc1`, the TGI in the assay with CAKI-1 renal was 48 µM; in the assay on DLD-1 colon, 54.1 µM; with DMS 114 small cell lung it was 42 µM; in the assay with LXFL 529 NSCLC, 34.7 µM; in the assay with M19-MEL melanoma, 52.3 µM; in the assay on NCI-H23 lung it was 33.7 µM. In addition, the TGI came to 38.3 µM with RPMI-8226 leukemia; 24.7 µM in the assay on RXF 393 renal; 36.8 µM in the assay on SF-268 CNS; 22.9 µM in the assay on SF-539 CNS; 33 µM in the assay with SK-MEL-28 melanoma; 46.8 µM with UACC-257 melanoma.

For `O=C(CCc1n[nH]c(=S)o1)Nc1cc(Cl)ccc1Cl`, the TGI was above 100 µM in the assay with CAKI-1 renal; above 100 µM in the assay on DLD-1 colon; above 100 µM with LXFL 529 NSCLC; above 100 µM with M19-MEL melanoma; above 100 µM in the assay on NCI-H23 lung; 46.3 µM in the assay with RPMI-8226 leukemia. Also, the TGI with SF-268 CNS, in the assay on SF-539 CNS, in the assay on SK-MEL-28 melanoma and in the assay with UACC-257 melanoma was above 100 µM throughout.

As for `CC1(OCc2ccccc2)C(=O)N2C1NCC2(C)C` (stereo unspecified), the TGI in the assay with DLD-1 colon, with DMS 114 small cell lung, with LXFL 529 NSCLC, in the assay on M19-MEL melanoma, in the assay with NCI-H23 lung and with RPMI-8226 leukemia was above 100 µM each time. Besides, the TGI with RXF 393 renal, in the assay with SF-268 CNS, in the assay with SF-539 CNS, with SK-MEL-28 melanoma and with UACC-257 melanoma was above 100 µM in each case.

On to `C/C(CN1C(=O)c2ccccc2C1=O)=N\NS(=O)(=O)c1ccc2ccccc2c1`, for which the TGI in the assay on CAKI-1 renal, with DLD-1 colon, in the assay with DMS 114 small cell lung, in the assay with LXFL 529 NSCLC, with M19-MEL melanoma and with NCI-H23 lung was above 100 µM throughout. Also, the TGI in the assay with RPMI-8226 leukemia, in the assay with SF-268 CNS, with SF-539 CNS, with SK-MEL-28 melanoma and in the assay with UACC-257 melanoma was above 100 µM throughout.

Regarding `O=C(/C=C/c1ccccc1)NC1C=Nc2ccc([N+](=O)[O-])cc2NC1=O` (stereo unspecified), the TGI with CAKI-1 renal, with DLD-1 colon, in the assay with DMS 114 small cell lung, in the assay with LXFL 529 NSCLC, with M19-MEL melanoma and in the assay with NCI-H23 lung was above 100 µM throughout. For the same molecule, the TGI in the assay with RXF 393 renal, in the assay on SF-268 CNS, with SF-539 CNS, in the assay on SK-MEL-28 melanoma and in the assay with UACC-257 melanoma was above 100 µM in each case.
